Assay results published in the supplement of paper PMC10307832.

Key:
Assay in all cases: relative viability (nuclei count vs DMSO), 5 days (fraction); higher = more cells survive
[1] = compound: C/C(=N\NC(=S)N1CCC1)/C2=CC=CC=N2 + CC(C)C[C@H](NC(=O)[C@H](Cc1ccccc1)NC(=O)c1cnccn1)B(O)O [Bortezomib] (partner 0.002 µM)
Method in brief: (§1)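 Relative viability divides the nuclei count in treated wells by that in vehicle wells. Lung cancer cell lines were seeded in 1536-well plates, dosed by pin tool the next day, and fixed and stained after 5 days in one step with final 0.05% Triton X-100, 1% formaldehyde and 1 ug/ml Hoechst. Dosing was a single drug or a fixed anchor-drug dose plus five library-drug doses (not always all listed) in √10 steps, and values are medians of duplicate plates imaged at 4×.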

[2] = compound: C/C(=N\NC(=S)N1CCC1)/C2=CC=CC=N2 + CC(=O)Nc1cccc(-n2c(=O)n(C3CC3)c(=O)c3c(Nc4ccc(I)cc4F)n(C)c(=O)c(C)c32)c1 [Trametinib] (partner 0.02 µM)
Method in brief: as §1

[3] = compound: C/C(=N\NC(=S)N1CCC1)/C2=CC=CC=N2 + O=C(c1cc(Cc2n[nH]c(=O)c3ccccc23)ccc1F)N1CCN(C(=O)C2CC2)CC1 [Olaparib] (partner 8 µM)
Method in brief: as §1

[4] = compound: C/C(=N\NC(=S)N1CCC1)/C2=CC=CC=N2 + CS(=O)(=O)N1CCN(Cc2cc3nc(-c4cccc5[nH]ncc45)nc(N4CCOCC4)c3s2)CC1 [Pictilisib] (partner 1 µM)
Method in brief: as §1

Row | Cell Line | relative viability ([1]; first compound 0.05 µM) | relative viability ([1]; first compound 0.1581 µM) | relative viability ([1]; first compound 0.5 µM) | relative viability ([1]; first compound 1.581 µM) | relative viability ([1]; first compound 5 µM) | relative viability ([2]; first compound 0.05 µM) | relative viability ([2]; first compound 0.1581 µM) | relative viability ([2]; first compound 0.5 µM) | relative viability ([2]; first compound 1.581 µM) | relative viability ([2]; first compound 5 µM) | relative viability ([3]; first compound 0.05 µM) | relative viability ([3]; first compound 0.1581 µM) | relative viability ([3]; first compound 0.5 µM) | relative viability ([3]; first compound 1.581 µM) | relative viability ([3]; first compound 5 µM) | relative viability ([4]; first compound 0.05 µM) | relative viability ([4]; first compound 0.1581 µM) | relative viability ([4]; first compound 0.5 µM) | relative viability ([4]; first compound 1.581 µM) | relative viability ([4]; first compound 5 µM)
1 | NCI-H1755 | 0.331 | 0.287 | 0.208 | 0.206 | 0.204 | 0.551 | 0.734 | 0.254 | 0.284 | 0.298 | 0.632 | 0.858 | 0.288 | 0.29 | 0.224 | 0.171 | 0.168 | 0.162 | 0.157 | 0.136
2 | NCI-H1792 | 0.478 | 0.5 | 0.219 | 0.16 | 0.126 | 0.415 | 0.101 | 0.0783 | 0.0869 | 0.0954 | 0.228 | 0.107 | 0.0578 | 0.134 | 0.101 | 0.193 | 0.149 | 0.122 | 0.0959 | 0.0891
3 | NCI-H1915 | 0.319 | 0.182 | 0.159 | 0.149 | 0.137 | 0.0702 | 0.0677 | 0.0851 | 0.0919 | 0.112 | 0.155 | 0.12 | 0.127 | 0.122 | 0.137 | 0.208 | 0.189 | 0.17 | 0.144 | 0.153
4 | NCI-H1975 | 0.15 | 0.144 | 0.134 | 0.147 | 0.156 | 0.143 | 0.118 | 0.105 | 0.109 | 0.119 | 0.111 | 0.113 | 0.118 | 0.111 | 0.133 | 0.123 | 0.136 | 0.127 | 0.131 | 0.136
5 | NCI-H1993 | 0.431 | 0.506 | 0.463 | 0.406 | 0.483 | 0.402 | 0.374 | 0.438 | 0.351 | 0.45 | 0.418 | 0.426 | 0.355 | 0.334 | 0.431 | 0.743 | 0.673 | 0.765 | 0.676 | 0.692
6 | NCI-H2009 | 0.117 | 0.126 | 0.138 | 0.122 | 0.0916 | 0.108 | 0.133 | 0.102 | 0.0932 | 0.111 | 0.0968 | 0.101 | 0.125 | 0.154 | 0.123 | 0.144 | 0.156 | 0.178 | 0.172 | 0.0975
7 | NCI-H2023 | 0.096 | 0.0935 | 0.0847 | 0.0887 | 0.0763 | 0.0918 | 0.0896 | 0.0543 | 0.069 | 0.0829 | 0.0912 | 0.0578 | 0.0664 | 0.0644 | 0.0565 | 0.064 | 0.0997 | 0.084 | 0.0661 | 0.0904
